Experiments:
human recombinant PDE4D = human recombinant PDE4D (Homo sapiens, UniProt Q08499); assay: Hydrolysis of 1 uM cAMP by human recombinant PDE4D; type: biochemical; conditions: for IC50: human recombinant PDE4D, 1 uM cAMP, read-out: Isozyme - IC50, 4D; for Enantiomer (+) vs. (−), PDE4D: potency of (+) relative to (−) enantiomer
Method: (§1) To assess pharmacologically which PDE4 isozyme(s) is responsible for eosinophil activation, we have prepared enantiomers of PDE4 inhibitors and compare the inhibitory effect of these enantiomers on PDE activity and eosinophil activation. PDE4 activity is assessed by measuring hydrolysis of 1 uM cAMP by individual human recombinant PDE4 isozymes (PDE4A, 4B, 4C or 4D). Eosinophil activation is estimated by measuring Sephadex beads-induced release of eosinophil derived neurotoxin (EDN) and leukotriene E4 in human whole blood. Table 1 illustrates comparison of one example of (−) and (+) enantiomers on the activity of individual PDE4 isozymes and on the release of END and LTE4.

human recombinant PDE4C = human recombinant PDE4C (Homo sapiens, UniProt Q08493); assay: Hydrolysis of 1 uM cAMP by human recombinant PDE4C; type: biochemical; conditions: for IC50: human recombinant PDE4C, 1 uM cAMP, read-out: Isozyme - IC50, C; for Enantiomer (+) vs. (−), PDE4C: potency of (+) relative to (−) enantiomer
Method: as §1

[1] = test system: eosinophil derived neurotoxin (EDN) release, human whole blood eosinophils; assay: Sephadex beads-induced EDN release in human whole blood (eosinophil degranulation); type: cell-based; conditions: for IC50: Homo sapiens, Eosinophil, read-out: HWB Eosinophil IC30 or IC50, EDN; for Enantiomer (+) vs. (−), EDN: potency of (+) relative to (−) enantiomer, human whole blood
Method: (§2) Inhibition of Eosinophil Degranulation and Activation in Human Whole Blood
(§3) Human Blood Eosinophil Degranulation and Activation Measurement
(§4) Blood Collection and Compound Incubation
(§5) One hundred ml blood is obtained from normal volunteers in Vacutainer tube #6480 (14.3 USP units sodium heparin/ml blood). Heparinized blood is pooled in 50 ml conical centrifuge tubes at 22° C. On ml blood is placed in a 12×75 mm siliconized glass tube containing 1 ul DMSO or 1 ul test compound in triplicate. After mixing, tubes are placed in a shaking water bath at 37° C. for 15 minutes. One ul PGE1 in DMSO is added to all tubes to give a final concentration of 1 uM. After mixing, 100 ul PBS (negative control) or Sephadex G-15 beads in PBS (8.25-16.5 mg/ml final concentration) is added to tubes. After mixing, all tubes are incubated in a shaking water bath at 37° C. for 1-2 hours.
(§6) Preparation of Plasma Samples
(§7) At the end of incubation, 20 ul of 15% EDTA in PBS is added to each assay tube. After mixing, the samples are centrifuged at 2,000 rpm (Sorvall 6000B centrifuge) at 22° C. for 5 minutes.
(§8) EDN (or EPX) and LTE4 Measurements and the Effect of Compounds
(§9) All plasma samples are tested for EDN (eosinophil derived neurotoxin) and LTE4 (leukotriene E4) levels. […] The levels of EDN and LTE4 are determined by a RIA (Kabi Pharmacia Diagnostics) and EIA (Cayman Chemical), respectively. EDN and LTE4 levels are calculated by comparison to a standard curve using Microsoft Excel or other appropriate software. Percent of control EDN or LTE4 release is calculated by:
% Control EDN=[EDN(compound)−EDN(blank)]/[EDN(total)−EDN(blank)]
(§10) where the blank is the level of EDN or LTE4 in the absence of Sephadex beads and the total is the level of EDN or LTE4 in the presence of Sephadex beads. An IC30 or IC50 value is defined as the concentration of a compound that inhibits specific EDN or LTE 4 release by 30 or 50%, respectively.
as §1

human recombinant PDE4B = human recombinant PDE4B (Homo sapiens, UniProt Q07343); assay: Hydrolysis of 1 uM cAMP by human recombinant PDE4B; type: biochemical; conditions: for IC50: human recombinant PDE4B, 1 uM cAMP, read-out: Isozyme - IC50, B; for Enantiomer (+) vs. (−), PDE4B: potency of (+) relative to (−) enantiomer
Method: as §1

human recombinant PDE4A = human recombinant PDE4A (Homo sapiens, UniProt P27815); assay: Hydrolysis of 1 uM cAMP by human recombinant PDE4A; type: biochemical; conditions: for IC50: human recombinant PDE4A, 1 uM cAMP, read-out: Isozyme - IC50, A; for Enantiomer (+) vs. (−), PDE4A: potency of (+) relative to (−) enantiomer
Method: as §1

[2] = test system: leukotriene E4 (LTE4) release, human whole blood eosinophils; assay: Sephadex beads-induced LTE4 release in human whole blood (eosinophil activation); type: cell-based; conditions: for IC50: Eosinophil, Sephadex beads, head does not say whether IC30 or IC50, read-out: HWB Eosinophil IC30 or IC50, LTE4; for Enantiomer (+) vs. (−), LTE4: potency of (+) relative to (−) enantiomer
Method: as §2, §3, §4, §5, §6, §7, §8, §9
% Control LTE4=[LTE4(compound)−LTE4(blank)]/[LTE4(total)−LTE4(blank)]
as §10, §1

Sequence of human recombinant PDE4C (Q08493 whole entry): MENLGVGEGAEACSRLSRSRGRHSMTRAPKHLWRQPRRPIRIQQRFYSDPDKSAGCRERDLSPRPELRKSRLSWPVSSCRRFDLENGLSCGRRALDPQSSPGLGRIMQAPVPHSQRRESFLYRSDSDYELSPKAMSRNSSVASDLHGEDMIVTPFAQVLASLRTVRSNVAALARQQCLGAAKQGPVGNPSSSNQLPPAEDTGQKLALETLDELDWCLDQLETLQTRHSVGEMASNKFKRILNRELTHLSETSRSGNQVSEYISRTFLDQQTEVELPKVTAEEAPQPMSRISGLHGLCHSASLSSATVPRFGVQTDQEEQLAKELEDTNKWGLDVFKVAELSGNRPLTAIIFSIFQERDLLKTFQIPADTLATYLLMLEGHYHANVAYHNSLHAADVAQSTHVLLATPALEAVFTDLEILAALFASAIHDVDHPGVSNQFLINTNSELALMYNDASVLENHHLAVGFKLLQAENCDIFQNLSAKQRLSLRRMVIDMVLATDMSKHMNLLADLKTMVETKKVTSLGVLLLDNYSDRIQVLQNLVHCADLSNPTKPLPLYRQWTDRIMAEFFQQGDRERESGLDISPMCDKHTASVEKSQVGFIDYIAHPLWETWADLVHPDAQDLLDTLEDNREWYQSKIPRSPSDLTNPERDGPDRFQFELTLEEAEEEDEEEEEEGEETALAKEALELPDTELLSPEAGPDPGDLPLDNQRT
Sequence of human recombinant PDE4A (P27815 whole entry): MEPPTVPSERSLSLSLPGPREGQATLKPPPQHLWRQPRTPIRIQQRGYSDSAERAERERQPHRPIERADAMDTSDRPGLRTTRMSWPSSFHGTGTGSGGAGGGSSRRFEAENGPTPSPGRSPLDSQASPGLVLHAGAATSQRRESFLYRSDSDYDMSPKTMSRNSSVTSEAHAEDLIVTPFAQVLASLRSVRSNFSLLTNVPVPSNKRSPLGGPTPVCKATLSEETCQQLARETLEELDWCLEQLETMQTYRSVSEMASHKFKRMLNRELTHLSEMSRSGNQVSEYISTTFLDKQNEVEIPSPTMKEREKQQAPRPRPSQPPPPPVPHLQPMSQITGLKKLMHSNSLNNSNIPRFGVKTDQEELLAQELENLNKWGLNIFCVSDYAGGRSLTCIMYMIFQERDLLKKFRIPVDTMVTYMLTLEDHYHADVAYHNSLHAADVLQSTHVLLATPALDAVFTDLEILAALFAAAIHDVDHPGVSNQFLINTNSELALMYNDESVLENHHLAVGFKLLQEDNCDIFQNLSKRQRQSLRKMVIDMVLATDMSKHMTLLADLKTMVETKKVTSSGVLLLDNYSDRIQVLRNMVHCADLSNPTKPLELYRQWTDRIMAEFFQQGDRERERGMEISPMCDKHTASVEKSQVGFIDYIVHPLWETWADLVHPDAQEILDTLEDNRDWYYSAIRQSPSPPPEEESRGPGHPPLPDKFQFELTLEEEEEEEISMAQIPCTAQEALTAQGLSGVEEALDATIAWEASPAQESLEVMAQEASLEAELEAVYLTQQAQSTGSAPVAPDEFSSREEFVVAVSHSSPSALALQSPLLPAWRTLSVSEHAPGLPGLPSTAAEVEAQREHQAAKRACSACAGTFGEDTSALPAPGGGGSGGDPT
Sequence of human recombinant PDE4B (Q07343 whole entry): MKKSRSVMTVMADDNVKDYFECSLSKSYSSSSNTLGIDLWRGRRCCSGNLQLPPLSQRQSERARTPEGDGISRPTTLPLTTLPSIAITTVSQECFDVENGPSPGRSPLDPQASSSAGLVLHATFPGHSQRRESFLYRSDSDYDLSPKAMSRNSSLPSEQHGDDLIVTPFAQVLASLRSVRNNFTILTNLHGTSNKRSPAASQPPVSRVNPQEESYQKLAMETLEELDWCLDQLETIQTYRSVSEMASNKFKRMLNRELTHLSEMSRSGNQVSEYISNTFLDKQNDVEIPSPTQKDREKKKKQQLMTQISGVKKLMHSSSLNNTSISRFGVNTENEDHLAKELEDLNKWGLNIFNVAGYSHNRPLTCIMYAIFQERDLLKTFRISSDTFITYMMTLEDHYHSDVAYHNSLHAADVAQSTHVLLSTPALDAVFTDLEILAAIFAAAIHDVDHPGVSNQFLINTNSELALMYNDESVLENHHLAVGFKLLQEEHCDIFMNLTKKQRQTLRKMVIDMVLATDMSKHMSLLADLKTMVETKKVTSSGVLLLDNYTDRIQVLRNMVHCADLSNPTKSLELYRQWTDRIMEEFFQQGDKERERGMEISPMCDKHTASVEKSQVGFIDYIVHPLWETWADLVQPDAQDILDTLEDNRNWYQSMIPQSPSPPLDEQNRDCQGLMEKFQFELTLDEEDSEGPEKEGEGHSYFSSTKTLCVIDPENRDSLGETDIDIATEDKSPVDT
Sequence of human recombinant PDE4D (Q08499 whole entry): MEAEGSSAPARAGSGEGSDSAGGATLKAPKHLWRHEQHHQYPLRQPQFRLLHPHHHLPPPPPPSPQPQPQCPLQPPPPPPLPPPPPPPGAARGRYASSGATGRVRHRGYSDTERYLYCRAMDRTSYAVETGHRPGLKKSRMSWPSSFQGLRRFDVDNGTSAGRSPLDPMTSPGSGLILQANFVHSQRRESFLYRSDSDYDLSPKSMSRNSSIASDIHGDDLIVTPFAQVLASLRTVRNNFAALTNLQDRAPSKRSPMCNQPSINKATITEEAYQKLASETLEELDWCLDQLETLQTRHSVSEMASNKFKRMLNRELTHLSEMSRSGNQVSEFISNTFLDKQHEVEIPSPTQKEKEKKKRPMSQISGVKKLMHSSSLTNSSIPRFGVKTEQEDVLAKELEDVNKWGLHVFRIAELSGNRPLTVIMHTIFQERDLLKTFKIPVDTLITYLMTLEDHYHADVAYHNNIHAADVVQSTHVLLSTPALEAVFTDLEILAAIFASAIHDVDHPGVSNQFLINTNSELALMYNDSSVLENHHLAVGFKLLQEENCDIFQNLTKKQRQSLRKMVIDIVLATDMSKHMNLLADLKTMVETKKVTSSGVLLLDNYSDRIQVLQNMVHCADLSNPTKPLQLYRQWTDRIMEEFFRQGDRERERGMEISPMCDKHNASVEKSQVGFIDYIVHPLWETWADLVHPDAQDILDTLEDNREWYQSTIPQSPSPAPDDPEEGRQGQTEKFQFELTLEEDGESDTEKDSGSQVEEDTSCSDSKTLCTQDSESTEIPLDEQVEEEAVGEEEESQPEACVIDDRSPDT

With `COc1ccc([C@H](C)NC(=O)c2cccnc2Oc2ccc(F)cc2)cc1` [(+) Enantiomer, (S)-(+) 2-(4-Fluoro-phenoxy)-N-[1-(4-methoxy-phenyl)-ethyl]-nicotinamide] the IC50 (human recombinant PDE4D) was 9 nM, the “Enantiomer (+) vs. (−), PDE4D” value (human recombinant PDE4D) was 22 X and the IC50 (human recombinant PDE4C) was 800 nM. For the same compound, the “Enantiomer (+) vs. (−), PDE4C” value (human recombinant PDE4C) was “approximately equipotent”, the IC50 [1] was 50 nM and the “Enantiomer (+) vs. (−), EDN” value [1] was 20-37 X. The IC50 (human recombinant PDE4B) was 600 nM, the “Enantiomer (+) vs. (−), PDE4B” value (human recombinant PDE4B) was “approximately equipotent” and the IC50 (human recombinant PDE4A) was 600 nM. The “Enantiomer (+) vs. (−), PDE4A” value (human recombinant PDE4A) was “approximately equipotent”, the IC50 [2] was 8 nM and the “Enantiomer (+) vs. (−), LTE4” value [2] was 20-37 X.
`COc1ccc([C@@H](C)NC(=O)c2cccnc2Oc2ccc(F)cc2)cc1` [(−) Enantiomer, (R)(−)2-(4-Fluoro-phenoxy)-N-[1-(4-methoxy-phenyl)-ethyl]-nicotinamide] showed an IC50 (human recombinant PDE4D) of 200 nM, an IC50 (human recombinant PDE4C) of 400 nM and an IC50 [1] of 1000 nM. The IC50 (human recombinant PDE4B) was 300 nM, the IC50 (human recombinant PDE4A) was 600 nM and the IC50 [2] was 300 nM.
`CC(C)(O)c1ccc(CNC(=O)c2cccnc2Oc2cccc3c2CCC3=O)cc1` [Example 284, N-[4-(1-Hydroxy-1-methyl-ethyl)-benzyl]-2-(1-oxo-indan-4-yloxy)-nicotinamide] gave a melting point of 145 to 147 °C.
In the case of `CC(=O)c1ccc(CNC(=O)c2cccnc2Oc2ccc(F)cc2)cc1` [Example 285, N-[4-Acetyl-benzyl)-2-(4-fluoro-phenoxy)-nicotinamide], the melting point is reported as 106 to 108 °C.
`O=C1CCC(CNC(=O)c2cccnc2Oc2ccc(F)cc2)CC1` [Example 286, 2-(4-Fluoro-phenoxy)-N-(4-oxo-cyclohexylmethyl)-nicotinamide] gave a melting point of 157 to 159 °C.
Work on `O=C(NCC1CCC(O)CC1)c1cccnc1Oc1ccc(F)cc1` (centres unmarked) [Example 288, 2-(4-Fluoro-phenoxy)-N-(4-hydroxy-cyclohexylmethyl)-nicotinamide] yielded a melting point of 110 to 112 °C.
In the case of `NC(=O)c1cccc(Oc2ncccc2C(=O)NCc2ccccc2Cl)c1` [Example 289, 2-(3-Carbamoyl-phenoxy)-N-(2-chloro-benzyl)-nicotinamide], the melting point is reported as 153 to 155 °C.
`CC(C)(O)c1ccc(CNC(=O)c2cccnc2Oc2ccc3c(c2)OCO3)cc1` [Example 293, 2-(Benzo[1,3]dioxol-5-yloxy)-N-[4-(1-hydroxy-1-methyl-ethyl)-benzyl]-nicotinamide] showed a melting point of 118 to 120 °C.
With `CCOC(=O)C1CCC(CNC(=O)c2cccnc2Oc2cccc(C(N)=O)c2)CC1` (centres unmarked) [Example 295, 4-({[2-(3-Carbamoyl-phenoxy)-pyridine-3-carbonyl]-amino}-methyl)-cyclohexanecarboxylic acid ethyl ester] the melting point was 160 to 162 °C.
`CC(C)(O)c1ccc(CNC(=O)c2cccnc2Oc2ccc3ncsc3c2)cc1` [Example 301, 2-(Benzothiazol-6-yloxy)-N-(4-(1-hydroxy-1-methyl-ethyl)-benzyl)-nicotinamide] showed a melting point of 195 to 197 °C.
In the case of `CC(C)(O)c1ccc(CNC(=O)c2cccnc2Oc2ccc3ncoc3c2)cc1` [Example 302, 2-(Benzooxazol-6-yloxy)-N-(4-(1-hydroxy-1-methyl-ethyl)-benzyl)-nicotinamide], the melting point is reported as 92 to 94 °C.
Work on `CC(=O)c1cc(Cl)cc(Oc2ncccc2C(=O)NCc2ccc(C(C)(C)O)cc2)c1` [Example 305, 2-(3-Acetyl-5-chloro-phenoxy)-N-(4-(1-Hydroxy-1-methyl-ethyl)-benzyl)-nicotinamide] yielded a melting point of 110 to 112 °C.
For `CC(=O)c1cccc(Oc2ncccc2C(=O)NCc2ccc([C@H](C)O)cc2)c1` [Example 306, (S)-(−)-2-(3-Acetyl-phenoxy)-N-(4-(1-hydroxy-ethyl)-benzyl)-nicotinamide], the melting point was 102 to 104 °C.
`CC(=O)c1cccc(Oc2ncccc2C(=O)NCc2ccc([C@@H](C)O)cc2)c1` [Example 307, (R)-(+)-2-(3-Acetyl-phenoxy)-N-(4-(1-hydroxy-ethyl)-benzyl)-nicotinamide] gave a melting point of 104 to 106 °C.
Compound `CC(=O)c1cc(Cl)cc(Oc2ncccc2C(=O)NC[C@H]2CC[C@H](C(C)(C)O)CC2)c1` [Example 308, 2-(3-Acetyl-5-chloro-phenoxy)-N-(trans-4-(1-hydroxy-1-methyl-ethyl)-cyclohexylmethyl)-nicotinamide] has a melting point of 133 to 135 °C.
Compound `CC(=O)c1cc(Oc2ncccc2C(=O)NC[C@H]2CC[C@H](C(C)(C)O)CC2)ccc1Cl` [Example 309, 2-(3-Acetyl-4-chloro-phenoxy)-N-(trans-4-(1-hydroxy-1-methyl-ethyl)-cyclohexylmethyl)-nicotinamide] has a melting point of 106 to 108 °C.
In the case of `Cc1noc2ccc(Oc3ncccc3C(=O)NCC3CCC(C(C)(C)O)CC3)cc12` (centres unmarked) [Example 315, N-(4-(1-Hydroxy-1-methyl-ethyl)-cyclohexylmethyl)-2-(3-methyl-benzo(d)-isoxazol-5-yloxy)-nicotinamide], the melting point is reported as 135 to 137 °C.
In the case of `Cc1noc2ccc(Oc3ncccc3C(=O)NCc3ccc(C(C)(C)O)cc3)cc12` [Example 316, N-(4-(1-Hydroxy-1-methyl-ethyl)-benzyl)-2-(3-methyl-benzo(d)-isoxazol-5-yloxy)-nicotinamide], the melting point is reported as 128 to 130 °C.
In the case of `Cc1noc2c(Oc3ncccc3C(=O)NCC3CCC(C(C)(C)O)CC3)cccc12` (centres unmarked) [Example 317, N-(4-(1-Hydroxy-1-methyl-ethyl)-cyclohexylmethyl)-2-(3-methyl-benzo(d)-isoxazol-7-yloxy)-nicotinamide], the melting point is reported as 170 to 172 °C.
Compound `CC(C)(O)C1CCC(CNC(=O)c2cccnc2Oc2ccc(F)c(C#N)c2)CC1` (centres unmarked) [Example 322, 2-(3-Cyano-4-fluoro-phenoxy)-N-[4-(1-hydroxy-1-methyl-ethyl)-cyclohexylmethyl]-nicotinamide] has a melting point of 85 to 88 °C.
Work on `CC(C)(O)c1ccc(CNC(=O)c2cccnc2Oc2ccc3c(c2)OCO3)c(F)c1` [Example 327, 2-(Benzo[1,3]dioxol-5-yloxy)-N-[2-fluoro-4-(1-hydroxy-1-methyl-ethyl)-benzyl]-nicotinamide] yielded a melting point of 94 to 95 °C.
Compound `CC(C)(O)c1ccc(CNC(=O)c2cccnc2Oc2ccc(F)cc2)c(F)c1` [Example 328, N-[2-Fluoro-4-(1-hydroxy-1-methyl-ethyl)-benzyl]-2-(4-fluoro-phenoxy)-nicotinamide] has a melting point of 93 to 94 °C.
With “(S)-(+) 2-(4-Fluoro-phenoxy)-N-[1-(4-methoxy-phenyl)-ethyl]-nicotinamide [(+) Enantiomer]” the “Enantiomer (+) vs. (−), PDE4D” value (human recombinant PDE4D) was 22X, the “Enantiomer (+) vs. (−), PDE4C” value (human recombinant PDE4C) was 0.5X and the “Enantiomer (+) vs. (−), EDN” value [1] was 20X. For the same compound, the “Enantiomer (+) vs. (−), PDE4B” value (human recombinant PDE4B) was “.5X”, the “Enantiomer (+) vs. (−), PDE4A” value (human recombinant PDE4A) was “.s” and the “Enantiomer (+) vs. (−), LTE4” value [2] was 37X.

Source: US6380218B1, “Nicotinamide derivatives” (Pfizer Inc, priority 1997, dated 2002)
